Values belong to the molecule of their own block, whether it stands above or below them.
Key:
[1] = system: Leishmania donovani MHOM-ET-67/L82 strain; experiment: Antiprotozoal activity against L. donovani; format: cell-based; conditions: read-out: IC50 L. donovani
schistosomiasis parasite = conditions: cited from earlier work
Cytotoxicity = format: cell-based; conditions: rat

- IC50 [1]: 340 nM
Structure (SMILES): CCCCCCCCCCCCCCCCOP(=O)([O-])OCC[N+](C)(C)C [Miltefosine]

Structure (SMILES): O=C(C1CCC(O)CC1)N1CC(=O)N2CCc3ccccc3C2C1 (stereo not drawn) [Compound 2]
- antischistosomal effectiveness relative to praziquantel (1) (in words) (schistosomiasis parasite): equal to or considerably less effective than the parent drug

Structure (SMILES): COc1cc([C@@H]2c3cc4c(cc3[C@H](O)[C@H]3COC(=O)[C@H]23)OCO4)cc(OC)c1OC [Podophyllotoxin]
- IC50 (Cytotoxicity): 7.2 nM

— publication PMC4128413 (Tetrahedron letters, 2014)
